{"source": "patent US8293979B2", "about": "“Weed controller metabolism proteins, genes, thereof and use of the same” (Sumitomo Chemical Company, Limited, priority 2001, dated 2012)", "assay_in_all_cases": "Metabolism of compound (II) by a microorganism", "assay_type_in_all_cases": "in vitro ADME", "conditions_in_all_cases": "compound (II) at 100 ppm, 7 to 8 days at 30° C.", "key": {"[1]": {"test_system": "Streptomyces purpurascens ATCC25489", "protocol": "(§1) The HPLC for content analysis in Examples 1, 41 and 42 and fraction purification of the compound was conducted under the conditions shown below.\n(§2) The various microorganisms shown in Tables 1 and 2 were grown in ISP2 agar medium (1.0% (w/v) malt extract, 0.4% (w/v) yeast extract, 0.4% (w/v) glucose, 2.0% (w/v) agar, pH 7.3). A “loopful” of the each microorganism was added to TGY medium (0.5% (w/v) tryptone, 0.5% (w/v) yeast extract, 0.1% (w/v) glucose, 0.01% (w/v) KH2PO4, pH 7.0) and incubated with shaking at 30° C. for 2 to 4 days. One-tenth milliliter (0.1 ml) of the obtained culture was incubated with shaking in 3 ml of sporulation medium (0.1% (w/v) of meat extract, 0.2% (w/v) tryptose, 1% glucose, pH 7.1) containing compound (II) at 100 ppm for 7 to 8 days at 30° C. Fifty microliters (50 μl) of 2N HCl was added to the resulting culture and this was extracted with 3 ml of ethyl acetate. The obtained ethyl acetate layer was analyzed on the HPLC. The concentration of compound (II) was reduced (column retention time of 23.9 minutes) and new peaks were detected for compounds at retention times of 21.6 minutes and 22.2 minutes (each referred to as metabolite (I) and metabolite (II))."}, "[2]": {"test_system": "Streptomyces argenteolus var. toyon ATCC21468t", "protocol": "as §1, §2"}, "[3]": {"test_system": "Streptomyces hachijoensis IFO12782", "protocol": "as §1, §2"}, "[4]": {"test_system": "Streptomyces griseus ATCC10137", "protocol": "as §1, §2"}, "[5]": {"test_system": "Streptomyces scabies IFO3111", "protocol": "as §1, §2"}, "[6]": {"test_system": "Streptomyces griseochromogenes ATCC14511", "protocol": "as §1, §2"}, "[7]": {"test_system": "Streptomyces sp. SANK62585", "protocol": "as §1, §2"}, "[8]": {"test_system": "Streptomyces kasugaensis IFO13851", "protocol": "as §1, §2"}, "[9]": {"test_system": "Streptomyces ornatus IFO13069t", "protocol": "as §1, §2"}, "[10]": {"test_system": "Streptomyces griseus IFO3102", "protocol": "as §1, §2"}, "[11]": {"test_system": "Streptomyces argenteolus var. toyonakensis ATCC21468", "protocol": "as §1, §2"}, "[12]": {"test_system": "Saccharopolyspora taberi JCM9383T", "protocol": "as §1, §2"}, "[13]": {"test_system": "Streptomyces phaeochromogenes IFO12898", "protocol": "as §1, §2"}, "[14]": {"test_system": "Streptomyces afghaniensis IFO12831", "protocol": "as §1, §2"}, "[15]": {"test_system": "Streptomyces fimicarius ATCC21900", "protocol": "as §1, §2"}, "[16]": {"test_system": "Streptomyces griseolus ATCC11796", "protocol": "as §1, §2"}, "[17]": {"test_system": "Streptomyces cacaoiasoensis IFO13813", "protocol": "as §1, §2"}, "[18]": {"test_system": "Streptomyces chartreusis ATCC21901", "protocol": "as §1, §2"}, "[19]": {"test_system": "Streptomyces roseochromogenus ATCC21895", "protocol": "as §1, §2"}}}
{"compound": "C[C@@H](Oc1cc(-n2c(=O)cc(C(F)(F)F)n(C)c2=O)c(F)cc1Cl)C(=O)O", "note": "[compound (II)]", "values": [{"measurement": "concentration of compound (II)", "setting": "[1]", "result": 70.9, "unit": "ppm"}, {"measurement": "concentration of compound (II)", "setting": "[2]", "result": 90.1, "unit": "ppm"}, {"measurement": "concentration of compound (II)", "setting": "[3]", "result": 83.9, "unit": "ppm"}, {"measurement": "concentration of compound (II)", "setting": "[4]", "result": 65.6, "unit": "ppm"}, {"measurement": "concentration of compound (II)", "setting": "[5]", "result": 88.3, "unit": "ppm"}, {"measurement": "concentration of compound (II)", "setting": "[6]", "result": 53.9, "unit": "ppm"}, {"measurement": "concentration of compound (II)", "setting": "[7]", "result": 54.6, "unit": "ppm"}, {"measurement": "concentration of compound (II)", "setting": "[8]", "result": 66.3, "unit": "ppm"}, {"measurement": "concentration of compound (II)", "setting": "[9]", "result": 65.3, "unit": "ppm"}, {"measurement": "concentration of compound (II)", "setting": "[10]", "result": 22.6, "unit": "ppm"}, {"measurement": "concentration of compound (II)", "setting": "[11]", "result": 13.0, "unit": "ppm"}, {"measurement": "concentration of compound (II)", "setting": "[12]", "result": 82.9, "unit": "ppm"}, {"measurement": "concentration of compound (II)", "setting": "[13]", "result": 46.4, "unit": "ppm"}, {"measurement": "concentration of compound (II)", "setting": "[14]", "result": 80.6, "unit": "ppm"}, {"measurement": "concentration of compound (II)", "setting": "[15]", "result": 46.5, "unit": "ppm"}, {"measurement": "concentration of compound (II)", "setting": "[16]", "result": 0, "unit": "ppm"}, {"measurement": "concentration of compound (II)", "setting": "[17]", "result": 77.8, "unit": "ppm"}, {"measurement": "concentration of compound (II)", "setting": "[18]", "result": 61.1, "unit": "ppm"}, {"measurement": "concentration of compound (II)", "setting": "[19]", "result": 74.2, "unit": "ppm"}]}
